Experimental data: patent publication US4001238A, “1,3,4-Oxadiazole amides” (Bristol-Myers Company, priority 1976, dated 1977)

Assays:
Solubility in water = type: physicochemical; details: in words
Experimental: Compound I can exist in two polymorphic forms. In an earlier experiment similar to Experiment E with the exception that an excess of piperazine hydrobromide was used, a water soluble form (Isomorph A) of Compound I having a M.P. of 224°-228° C. was obtained. This product was recrystallized from nitromethane to give an analytical sample of Isomorph A having a M.P. of 227°-229° C.
A 200 mg. sample of Isomorph A was dissolved in 10 ml. of water at 20° C. The solution was heated at 60° C. for 3 minutes, then cooled to 35° C. and filtered. […] This product was termed Isomorph B of Compound I.

humans [1] = assay: Clinical use as antihypertensive agent (literature); type: in vivo, human; details: lower end of clinical daily dosage range (trimazosin 150 to 500 mg, prazosin 1.5 to 15 mg)
humans [2] = details: clinical, in words; literature; cited from earlier work
[3] = system: spontaneous hypertensive rats; assay: Antihypertensive activity, oral administration to spontaneous hypertensive rats; type: in vivo, rat; details: for ED50: Rattus norvegicus, read-out: Antihypertensive Activity ED50 mm Hg
Experimental: In Table 1, antihypertensive activity was determined by oral administration to spontaneous hypertensive rats, and the in vitro and in vivo α-adrenergic receptor blocking effect was determined by tests described following Table 1.

α-adrenergic receptor [4] = target: T1, α-adrenergic receptor (Rattus norvegicus, UniProt P43140); assay: Isolated rat seminal vesicle assay (inhibition of norepinephrine induced contractions; α-adrenergic receptor blocking effect in vitro); details: for decrease in the sensitivity of isolated rat seminal vesicles to the stimulant activity of NE: 10 nanograms/ml; for NE ED50 with 95% Conf. Limits: NE ED50 in presence of test compound 10 nano/ml, control 0.89 (0.84-0.94)
T1 construct: Seminal vesicles were removed and transfered to a shallow dish containing modified Tyrode's solution; from tissue; host or cells: isolated seminal vesicle of male Long Evans rats
T1 sequence (P43140 1-466): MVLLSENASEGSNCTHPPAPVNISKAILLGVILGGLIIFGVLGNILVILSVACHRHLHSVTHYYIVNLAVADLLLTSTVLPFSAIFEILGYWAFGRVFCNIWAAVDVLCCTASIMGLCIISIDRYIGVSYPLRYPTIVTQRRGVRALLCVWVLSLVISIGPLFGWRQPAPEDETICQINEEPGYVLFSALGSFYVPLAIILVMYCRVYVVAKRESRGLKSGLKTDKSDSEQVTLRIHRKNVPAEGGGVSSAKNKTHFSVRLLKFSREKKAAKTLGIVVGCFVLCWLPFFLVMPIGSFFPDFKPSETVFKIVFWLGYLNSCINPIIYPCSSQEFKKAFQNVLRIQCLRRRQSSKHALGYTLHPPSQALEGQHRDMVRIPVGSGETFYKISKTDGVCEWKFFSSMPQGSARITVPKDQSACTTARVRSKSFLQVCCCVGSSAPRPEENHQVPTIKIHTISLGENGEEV
Experimental: (§1) In Table 1, antihypertensive activity was determined by oral administration to spontaneous hypertensive rats, and the in vitro and in vivo α-adrenergic receptor blocking effect was determined by tests described following Table 1. In the in vitro test, the inhibition by BL-5111 of norepinephrine induced contractions of rat seminal vesicles was measured; and in the in vivo test, the inhibition by BL-5111 of norepinephrine induced pressor responses in anesthetized dogs was measured.
Dangan et al, Int. […] Lietch et al, Brit.
Male Long Evans rats weighing approximately 300 g. were sacrificed by a sharp blow on the head. Seminal vesicles were removed and transfered to a shallow dish containing modified Tyrode's solution. The vesicles were emptied of their contents by squeezing them gently with a pair of forceps. Silk thread (4-0) was attached to both ends of the vesicle and it was suspended in a 20 ml. muscle chamber containing modified oxygenated Tyrode's solution (g./liter: NaCl 8, KCl 0.2, CaCl2 0.26, NaHCO3 1, Na2 HPO4 0.0575, glucose 0.5 and MgCl2 0.02). The bathing fluid was maintained at 37° C. with a thermostatically controlled isolated organ tissue bath. Contractions were recorded isometrically by means of a force displacement transducer and recordings were made with a Beckman RP Dynograph. Norepinephrine (NE) was added to the muscle chamber in volumes ranging from 0.1 to 0.4 ml. with a one ml. syringe attached to a 3 inch 20 gauge needle. NE and test compounds were dissolved in deionized water.
NE dose response curves were obtained alone and in the presence of test compounds. NE was allowed to remain in contact with the strip until a maximal contraction was obtained. The strip was then washed with the perfusion fluid for 15-30 seconds and the preparation was allowed to return to base line before a subsequent dose of NE was given. Increasing amounts of NE were injected into the bath in the same manner until a complete dose response was obtained.
The seminal vesicles used to obtain the control NE dose response were discarded and new preparations were placed in the tissue bath for evaluation of the test compound. The test compound was added directly to the perfusion fluid (10 nanograms/ml.) and the strips were allowed to remain in contact with the bathing media for at least 10 minutes before the NE dose response was determined.
ED50 values for NE were obtained by regression analysis as described by Finney, Probit. Analysis, 2d Ed., Cambridge (1964). A minimum of 4 strips and at least 4 doses were employed to calculate the regression lines. The ED50 value is defined as the concentration of NE which produces a contraction equal to 50% of the maximal contraction.

vascular smooth muscle = details: in words; literature; cited from earlier work
α-adrenergic receptor [5] = details: in words; literature; cited from earlier work
α-adrenergic receptor [6] = assay: Anesthetized dog assay for α-adrenergic blocking agents (inhibition of norepinephrine induced pressor responses); type: in vivo
Experimental: as §1
Nash, C. B., Pharmacological Research Communications, 4:423, (1969) and Maxwell, R. A., Drill's Pharmacology in Medicine, (1971) p. 683 have shown that in anesthetized dogs α-adrenergic blocking agents antagonize the blood pressure elevating effects of intravenous norepinephrine. Thus, blood pressure responses to norepinephrine (NE) in anesthetized dogs was used as a comparative assay for α-adrenergic receptor blocking properties of drugs.
Experiments were done on mongrel dogs anesthetized with sodium pentobarbital, 30 mg./kg. iv. The left femoral artery was cannulated to record aortic blood pressure and a femoral vein was cannulated for administration of drugs. All animals underwent a bilateral vagotomy. A norepinephrine dose-response curve was obtained by administering increasing doses of iv. norepinephrine (0.01 - 1 μg/kg). […] Approximately 30 minutes later a dose-response curve was again established for iv. norepinephrine (0.01-10 μg/kg).

in vivo = details: mouse, IV, mice
[7] = 1 mg/kg, oral, spontaneous hypertensive rats
[8] = 3 mg/kg, oral, spontaneous hypertensive rats
[9] = 10 mg/kg, oral, spontaneous hypertensive rats
[10] = oral, spontaneous hypertensive rats
[11] = 10 nano/ml, isolated rat seminal vesicles

| Compound | solubility in water (Solubility in water) | % Blood Pressure Change [3, 7] [%] | % Blood Pressure Change [3, 8] [%] | % Blood Pressure Change [3, 9] [%] | ED50 [3, 10] [mg/kg] | Percent Change From Control (NE ED50) (α-adrenergic receptor [4]; [11]) [%] | decrease in the sensitivity of isolated rat seminal vesicles to the stimulant activity of NE (α-adrenergic receptor [4]; in words) | NE ED50 with 95% Conf. Limits (α-adrenergic receptor [4]; isolated rat seminal vesicles) | other results |
| --- | --- | --- | --- | --- | --- | --- | --- | --- | --- |
| COc1cc2nc(N3CCNCC3)nc(N)c2cc1OC [Isomorph B, 4-amino-6,7-dimethoxy-2-(1-piperazinyl)quinazoline] | would not redissolve in boiling water | – | – | – | – | – | – | – | – |
| COc1cc2c(N)nc(N3CCN(C(=O)OCC(C)(C)O)CC3)nc2c(OC)c1OC [Trimazosin] | – | – | – | – | – | – | – | – | potency relative to prazosin (fold weaker) (humans [1]): 100 fold; activity in humans as an antihypertensive agent (humans [2]): active in humans as an antihypertensive agent |
| COc1cc2nc(N3CCN(C(=O)c4ccco4)CC3)nc(N)c2cc1OC [Prazosin, 2-[4-(2-furoyl)-piperazin-1-yl]-4-amino-6,7-dimethoxyquinazoline, reference compound] | – | -14 | -29 | -42 | 2.1 | 578 | nearly a six fold decrease | 6.03 (5.30-6.81) μg/ml | vasodilation effect on vascular smooth muscle (vascular smooth muscle): direct peripheral vasodilation effect on vascular smooth muscle; peripheral α-adrenergic receptor blockade (α-adrenergic receptor [5]): functional peripheral α-adrenergic receptor blockade |
| COc1cc2nc(N3CCN(C(=O)c4nnc(SC)o4)CC3)nc(N)c2cc1OC.Cl [BL-5111, 4-Amino-6,7-dimethoxy-2-[4-(5-methylthio-1,3,4-oxadiazole-2-carbonyl)-piperazin-1-yl]-quinazoline hydrochloride] | – | -19 | -26 | -41 | 2.3 | 4.5 | essentially inactive | 0.93 (0.80-1.08) μg/ml | antihypertensive potency compared to prazosin ([3]; in words): comparable antihypertensive potency to prazosin; Antihypertensive Activity Ratio ([3]; relative to prazosin, oral, spontaneous hypertensive rats): 0.91; Activity Ratio Relative to Prazosin (α-adrenergic receptor [4]; Table II, 10 nano/ml, isolated rat seminal vesicles): 0.008; α-adrenergic blocking activity relative to prazosin (α-adrenergic receptor [4]; conclusion from isolated rat seminal vesicles, in words): less than one percent; times less active than prazosin in causing α-adrenergic blockade (α-adrenergic receptor [6]; 3 mg/kg iv, anesthetized dogs): approximately 30 times; α-Adrenergic Receptor Blocking Effect, In Vivo Activity Ratio (α-adrenergic receptor [6]; Table 1, relative to prazosin, intravenous, anesthetized dogs): 0.04; Activity Ratio Relative to Prazosin (α-adrenergic receptor [6]; Table III, 3 mg/kg iv, anesthetized dogs): 0.036; peripheral α-adrenergic blocking properties (α-adrenergic receptor [6]; in words, in vitro and in vivo tests together (Table 1)): little or none of the peripheral α-adrenergic blocking properties shown by prazosin; LD50 (in vivo): 45.7 mg/kg |
| COc1cc2nc(N3CCNCC3)nc(N)c2cc1OC [Isomorph A, 4-amino-6,7-dimethoxy-2-(1-piperazinyl)quinazoline] | water soluble | – | – | – | – | – | – | – | – |
